Results on one molecule are retold here after paper PMC5696599, “Confirming a Role for α9nAChRs and SK Potassium Channels in Type II Hair Cells of the Turtle Posterior Crista” (Frontiers in Cellular Neuroscience, 2017).

Structures are written as SMILES.

This assay has as its target T1, α9*nAChR (alpha9-containing nicotinic ACh receptor) (Trachemys scripta, UniProt Q3L0X1).
T1 construct: gene CHRNA9; native receptor in type II hair cells, intact split-epithelial posterior crista; read-out through coupled SK potassium current
Briefly: whole-cell patch clamp of type II hair cells, peak ACh-sensitive outward current, Hill fit. The class given is cell-based. To be noted: agonist; coupled SK current read-out at −17 mV; intact epithelium with acetylcholinesterase and diffusion barriers; pH 7.6; 21–25°C.

T1 sequence (Q3L0X1 28-490): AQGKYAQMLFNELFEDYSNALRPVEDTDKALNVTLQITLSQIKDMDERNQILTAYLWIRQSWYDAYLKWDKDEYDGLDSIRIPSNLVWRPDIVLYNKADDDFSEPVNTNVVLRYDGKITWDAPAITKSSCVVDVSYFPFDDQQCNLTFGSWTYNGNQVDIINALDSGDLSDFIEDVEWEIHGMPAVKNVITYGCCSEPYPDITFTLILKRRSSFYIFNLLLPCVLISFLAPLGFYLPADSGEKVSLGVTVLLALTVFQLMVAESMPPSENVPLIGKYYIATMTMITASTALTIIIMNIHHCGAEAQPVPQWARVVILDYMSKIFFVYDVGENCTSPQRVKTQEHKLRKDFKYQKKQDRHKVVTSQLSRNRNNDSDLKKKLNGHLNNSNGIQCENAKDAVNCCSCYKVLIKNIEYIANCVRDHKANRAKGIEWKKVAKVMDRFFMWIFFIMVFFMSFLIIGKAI
T1 sequence (UPI001552A461 25-505 partner): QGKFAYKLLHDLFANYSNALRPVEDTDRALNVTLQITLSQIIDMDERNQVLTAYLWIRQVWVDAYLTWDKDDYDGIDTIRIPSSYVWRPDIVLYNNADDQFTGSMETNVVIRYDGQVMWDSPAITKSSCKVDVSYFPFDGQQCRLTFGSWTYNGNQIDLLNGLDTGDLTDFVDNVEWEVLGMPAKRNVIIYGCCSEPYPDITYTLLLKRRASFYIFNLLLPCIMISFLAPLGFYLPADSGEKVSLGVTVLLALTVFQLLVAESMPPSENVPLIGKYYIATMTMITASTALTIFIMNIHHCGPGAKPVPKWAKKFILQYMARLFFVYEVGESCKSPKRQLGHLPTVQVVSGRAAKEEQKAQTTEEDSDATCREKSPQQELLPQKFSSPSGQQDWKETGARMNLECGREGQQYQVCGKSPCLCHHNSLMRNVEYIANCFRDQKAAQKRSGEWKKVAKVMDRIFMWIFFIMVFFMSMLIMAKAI

By EC50 is commonly meant the concentration needed to bring the measured effect to its halfway point. For `CC(=O)OCC[N+](C)(C)C` [acetylcholine], the concentration giving a half-maximal response (EC50) came to 76 µM.
